Assay results taken from ChEMBL document CHEMBL1150628, “Cytotoxic beta-carbolines and cyclic peroxides from the Palauan sponge Plakortis nigra” (J Nat Prod, 2002).
pIC50: −log10 of the molar value.

Tested on: HCT-116
Assay: Cytotoxicity against human HCT116 cells
Format: functional, cell-based

Row | SMILES | pIC50
1 | C[C@H]1C[C@@](C)(CCCCCCCCCCCCc2ccccc2)OC1=O (relative stereo) | 4.84
2 | CN(C)CCc1nccc2c1[nH]c1cc(Br)ccc12 [PLAKORTAMINE A] | 5.49
3 | C=Cc1nccc2c1[nH]c1cc(Br)ccc12 [PLAKORTAMINE B] | 6.21
4 | CN(CCc1nccc2c1[nH]c1cc(Br)ccc12)CCc1nccc2c1[nH]c1cc(Br)ccc12 [PLAKORTAMINE C] | 5.67
5 | CN1CCC(c2nccc3c2[nH]c2cc(Br)ccc23)O1 (stereo not given) [PLAKORTAMINE D] | 4.82
